{"source": "patent US20100092562A1", "about": "“SUSTAINED-RELEASE DRUG DELIVERY COMPOSITIONS AND METHODS” (priority 2002, published 2010)", "key": {"[1]": {"details": "cited from earlier work"}, "[2]": {"assay": "Release profile of base vs salt forms of drugs in liquid controlled release compositions, USP Apparatus 2", "type": "physicochemical", "details": "liquid sustained release compositions, 65% W/W sucrose; stored 3 weeks at room temperature"}, "[3]": {"assay": "Effect of sucrose concentration in dispersion medium on albuterol release, USP Apparatus 2", "type": "physicochemical", "details": "alginate beads, 20% coating; stored 1 week at room temperature", "protocol": "The experiment was carried out with 16 mg of albuterol bound to the alginic acid resin, with 20% coating, and 40%, 50%, 60% or 65% W/W of sucrose in the dispersion medium. First, the alginate beads were loaded with the drug albuterol, where 5% of albuterol and 5% of alginic acid were used. Albuterol and alginic acid powders were placed in a beaker, 100 ml of water was added, and the mixture was stirred until a homogenous gel was formed. Then, 70% microcrystalline cellulose and 20% lactose were placed into a bowl of a low shear mixer and pre-blended with a spatula. Then, the albuterol-alginate gel was incrementally added to the microcrystalline cellulose and lactose blend and mixed to produce a wet mass. Additional 50 ml of water was added to the beaker to wash down its sides and added to the wet mass during its blending, and the resulting wet mass was transferred into a polyethylene bag. Then, the resulting wet mass material was extruded using a dome screen attachment with 0.8 mm screen size at 55 rpm, with the wet mass being gradually added into the extruder. Subsequently, the extrudate was spheronized at 750 rpm for approximately 30 sec, and then dried overnight in a convection oven at 45° C. The beads of appropriate size (material that passed through 16 mesh screens and retained on 20 mesh screens) were selected. […]"}, "[4]": {"details": "sodium alginate 0.877 g/L, 25° C.", "protocol": "The studies were performed with a two compartment plexiglass dialysis cell (Hollenbeck laboratory) and having a cellulose membrane (molecular weight cutoff of 6000 Daltons) Bel-Art Products (Pequannock, N.J.) placed between the two cell compartments. […] The dialysis cell was shaken at 80 RPM in a thermostatic water bath at 25° C. until equilibrium was reached (30 h). The solution was removed from the drug compartment and the concentrations of free drug and polymer-bound drug measured by high performance liquid chromatography (“HPLC”)."}, "[5]": {"details": "single IR oral dose of 10 mg HC, 5 male human subjects"}, "[6]": {"details": "total drug concentration 4.97 (M × 10^4)"}, "[7]": {"details": "total drug concentration 5.47 (M × 10^4)"}, "[8]": {"details": "total drug concentration 5.96 (M × 10^4)"}, "[9]": {"details": "total drug concentration 6.96 (M × 10^4)"}, "[10]": {"details": "total drug concentration 7.95 (M × 10^4)"}, "[11]": {"details": "total drug concentration 8.95 (M × 10^4)"}, "[12]": {"details": "total drug concentration 9.94 (M × 10^4)"}, "[13]": {"details": "total drug concentration 14.91 (M × 10^4)"}, "[14]": {"details": "total drug concentration 19.88 (M × 10^4)"}, "[15]": {"details": "total drug concentration 24.86 (M × 10^4)"}, "[16]": {"details": "total drug concentration 30.40 (M × 10^4)"}, "[17]": {"details": "total drug concentration 41.20 (M × 10^4)"}, "[18]": {"details": "total drug concentration 50.70 (M × 10^4)"}}, "note": "Structures can show the parent of a compound that is named as a salt. Where two headings read alike, the source gives them in different places."}
{"compound": "COc1ccc2c3c1O[C@H]1C(=O)CC[C@H]4[C@@H](C2)N(C)CC[C@]314", "note": "(relative stereo) [hydrocodone, morphinan-6-one, 4,5-epoxy-3-methoxy-17-methyl-,(5)-, [R—(R*,R*)]-2,3-dihydroxybutane-dioate (1:1), hydrate (2:5)]", "values": [{"measurement": "elimination half-life of the parent-compound", "setting": "[1]; in vivo", "result": "3.8 to 4.5", "unit": "h"}, {"measurement": "Tmax", "setting": "[1]; [5]", "result": "approximately 1.3±0.3 hours"}, {"measurement": "mean peak serum concentration", "setting": "[1]; [5]", "result": "23.6 ± 5.2", "unit": "ng/mL"}, {"measurement": "total excretion occurring in the first 24 hours", "setting": "[1]; single oral dose", "result": "About 70%"}]}
{"compound": "CN[C@@H](C)[C@@H](O)c1ccccc1", "note": "(relative stereo) [pseudoephedrine, benzenemethanol, -[1-(methylamino)ethyl]-, [S—(R*,R*)]-, hydrochloride]", "values": [{"measurement": "rate of release of salt forms vs base forms", "setting": "[2]", "result": "comparable"}, {"measurement": "half-life", "setting": "[1]; affected by urinary pH", "result": "9 to 16", "unit": "h"}, {"measurement": "dose excreted unchanged in the urine within 24 hours of dosing", "setting": "[1]; in vivo", "result": "up to 90%"}, {"measurement": "Tmax following administration", "setting": "[1]; previously published studies", "result": "1.5 to 2.4", "unit": "h"}]}
{"compound": "CC(C)(C)NCC(O)c1ccc(O)c(CO)c1", "note": "(stereo not shown) [albuterol]", "values": [{"measurement": "release from beads suspended in 50%, 60% and 65% W/W of sucrose vs 40% W/W of sucrose", "setting": "[3]", "result": "slower"}]}
{"compound": "CN(C)CCC(c1ccc(Cl)cc1)c1ccccn1", "note": "(stereo not shown) [chlorpheniramine, 2-pyridinepropanamine, -(4-chlorophenyl)-N,N-dimethyl-, (Z)-2-butenedioate (1:1)]", "values": [{"measurement": "rate of release of salt forms vs base forms", "setting": "[2]", "result": "comparable"}, {"measurement": "excreted in the feces", "setting": "[1]; in vivo", "result": "Less than 1%"}, {"measurement": "excreted in the urine (metabolism to monodesmethyl and didesmethyl compounds)", "setting": "[1]; in vivo", "result": "up to 26%"}, {"measurement": "renal elimination, share of total excretion", "setting": "[1]; in vivo", "result": "approximately 50%"}]}
{"compound": "CC(C)NCC(O)COc1cccc2ccccc12.Cl", "note": "(stereo not shown) [propranolol, propranolol hydrochloride]", "values": [{"measurement": "(l/g), r/(Df)", "setting": "[4]; [6]", "result": 4.88, "unit": "L/g"}, {"measurement": "Amount bound per gram of polymer", "setting": "[4]; [6]", "result": 4.59, "unit": "M × 10^4"}, {"measurement": "Bound drug concentration", "setting": "[4]; [6]", "result": 4.03, "unit": "M × 10^4"}, {"measurement": "Free drug concentration", "setting": "[4]; [6]", "result": 0.94, "unit": "M × 10^4"}, {"measurement": "(l/g), r/(Df)", "setting": "[4]; [7]", "result": 3.97, "unit": "L/g"}, {"measurement": "Amount bound per gram of polymer", "setting": "[4]; [7]", "result": 4.84, "unit": "M × 10^4"}, {"measurement": "Bound drug concentration", "setting": "[4]; [7]", "result": 4.25, "unit": "M × 10^4"}, {"measurement": "Free drug concentration", "setting": "[4]; [7]", "result": 1.22, "unit": "M × 10^4"}, {"measurement": "(l/g), r/(Df)", "setting": "[4]; [8]", "result": 3.60, "unit": "L/g"}, {"measurement": "Amount bound per gram of polymer", "setting": "[4]; [8]", "result": 5.16, "unit": "M × 10^4"}, {"measurement": "Bound drug concentration", "setting": "[4]; [8]", "result": 4.53, "unit": "M × 10^4"}, {"measurement": "Free drug concentration", "setting": "[4]; [8]", "result": 1.43, "unit": "M × 10^4"}, {"measurement": "(l/g), r/(Df)", "setting": "[4]; [9]", "result": 3.21, "unit": "L/g"}, {"measurement": "Amount bound per gram of polymer", "setting": "[4]; [9]", "result": 5.86, "unit": "M × 10^4"}, {"measurement": "Bound drug concentration", "setting": "[4]; [9]", "result": 5.14, "unit": "M × 10^4"}, {"measurement": "Free drug concentration", "setting": "[4]; [9]", "result": 1.82, "unit": "M × 10^4"}, {"measurement": "(l/g), r/(Df)", "setting": "[4]; [10]", "result": 2.49, "unit": "L/g"}, {"measurement": "Amount bound per gram of polymer", "setting": "[4]; [10]", "result": 6.23, "unit": "M × 10^4"}, {"measurement": "Bound drug concentration", "setting": "[4]; [10]", "result": 5.46, "unit": "M × 10^4"}, {"measurement": "Free drug concentration", "setting": "[4]; [10]", "result": 2.49, "unit": "M × 10^4"}, {"measurement": "(l/g), r/(Df)", "setting": "[4]; [11]", "result": 1.71, "unit": "L/g"}, {"measurement": "Amount bound per gram of polymer", "setting": "[4]; [11]", "result": 6.12, "unit": "M × 10^4"}, {"measurement": "Bound drug concentration", "setting": "[4]; [11]", "result": 5.37, "unit": "M × 10^4"}, {"measurement": "Free drug concentration", "setting": "[4]; [11]", "result": 3.57, "unit": "M × 10^4"}, {"measurement": "(l/g), r/(Df)", "setting": "[4]; [12]", "result": 1.62, "unit": "L/g"}, {"measurement": "Amount bound per gram of polymer", "setting": "[4]; [12]", "result": 6.66, "unit": "M × 10^4"}, {"measurement": "Bound drug concentration", "setting": "[4]; [12]", "result": 5.83, "unit": "M × 10^4"}, {"measurement": "Free drug concentration", "setting": "[4]; [12]", "result": 4.10, "unit": "M × 10^4"}, {"measurement": "(l/g), r/(Df)", "setting": "[4]; [13]", "result": 1.17, "unit": "L/g"}, {"measurement": "Amount bound per gram of polymer", "setting": "[4]; [13]", "result": 8.61, "unit": "M × 10^4"}, {"measurement": "Free drug concentration", "setting": "[4]; [13]", "result": 7.36, "unit": "M × 10^4"}, {"measurement": "(l/g), r/(Df)", "setting": "[4]; [14]", "result": 0.87, "unit": "L/g"}, {"measurement": "Amount bound per gram of polymer", "setting": "[4]; [14]", "result": 9.81, "unit": "M × 10^4"}, {"measurement": "Bound drug concentration", "setting": "[4]; [14]", "result": 8.60, "unit": "M × 10^4"}, {"measurement": "Free drug concentration", "setting": "[4]; [14]", "result": 11.28, "unit": "M × 10^4"}, {"measurement": "(l/g), r/(Df)", "setting": "[4]; [15]", "result": 0.60, "unit": "L/g"}, {"measurement": "Amount bound per gram of polymer", "setting": "[4]; [15]", "result": 10.73, "unit": "M × 10^4"}, {"measurement": "Bound drug concentration", "setting": "[4]; [15]", "result": 9.41, "unit": "M × 10^4"}, {"measurement": "Free drug concentration", "setting": "[4]; [15]", "result": 15.45, "unit": "M × 10^4"}, {"measurement": "(l/g), r/(Df)", "setting": "[4]; [16]", "result": 0.57, "unit": "L/g"}, {"measurement": "Amount bound per gram of polymer", "setting": "[4]; [16]", "result": 11.49, "unit": "M × 10^4"}, {"measurement": "Bound drug concentration", "setting": "[4]; [16]", "result": 10.08, "unit": "M × 10^4"}, {"measurement": "Free drug concentration", "setting": "[4]; [16]", "result": 20.32, "unit": "M × 10^4"}, {"measurement": "(l/g), r/(Df)", "setting": "[4]; [17]", "result": 0.41, "unit": "L/g"}, {"measurement": "Amount bound per gram of polymer", "setting": "[4]; [17]", "result": 12.37, "unit": "M × 10^4"}, {"measurement": "Bound drug concentration", "setting": "[4]; [17]", "result": 10.84, "unit": "M × 10^4"}, {"measurement": "Free drug concentration", "setting": "[4]; [17]", "result": 30.35, "unit": "M × 10^4"}, {"measurement": "(l/g), r/(Df)", "setting": "[4]; [18]", "result": 0.33, "unit": "L/g"}, {"measurement": "Amount bound per gram of polymer", "setting": "[4]; [18]", "result": 12.93, "unit": "M × 10^4"}, {"measurement": "Bound drug concentration", "setting": "[4]; [18]", "result": 11.34, "unit": "M × 10^4"}, {"measurement": "Free drug concentration", "setting": "[4]; [18]", "result": 39.36, "unit": "M × 10^4"}]}
